Measurements reported in patent publication US9018237B2, “Methods for improved wound closure employing olivamine and endothelial cells” (priority 2009, dated 2015).

System: human microvascular endothelial cells
Experiment: in vitro model of wound healing (cell migration), time for 50% of wound to heal
Type: cell-based
Excerpt: The time for wounds to heal by 50% under the various treatment conditions was quantified.

In the case of `OCCc1ccc(O)c(O)c1` [Hydroxytyrosol], the “less effective in wound healing than the present art” value (hydroxytyrosol alone versus the combination (Table 1)) is reported as 30%.

For `NCCS(=O)(=O)O` [L-Taurine], the “Time for 50% wound to heal” value (Table 9, single ingredients, Present Art and Present Art without one ingredient) was 22.5 h.

With `CC(=O)N[C@@H](CS)C(=O)O` [N-acetylcysteine, reference compound] the “effect on time and extent of wound healing (in words)” value (compared to untreated or to the additive effect of the compounds) was “increased the time to 50% healing compared to untreated”.
